Experiments:
OVA sensitized mice [1] = experiment: Airway responsiveness to intravenous methacholine (lung resistance, ED200) in OVA sensitized and aerosol challenged mice; format: in vivo, mouse (BALB/c)
Procedure: FIG. 1. Inhibition of airway hyper-responsiveness with LXa. OVA sensitized mice were treated with LXa ([…]) (o) or vehicle (•) prior to OVA aerosol challenge. Airway reactivity was determined by methacholine-dependent change in lung resistance (a) and calculation of ED200 (b). Results are expressed as mean±SEM (n≧17 in (a) and n≧6 (b)). *P<0.05 by Student's t-test compared to control animals.
After systemic sensitization to ovalbumin (OVA, 10 μg i.p.), male Balb/c mice (5-7 weeks) were exposed to aerosolized OVA (6%, 25 min) on four successive days. 24 hours after the last aerosol, bronchial responsiveness to intravenous methacholine was determined (as in refs. 14, 15), bronchoalveolar lavage was performed and tissues were harvested for microscopy. […] After allergen sensitization and aerosol challenge, high levels of both CysLT (139.0+/−27.3 pg CysLT/ml, mean+/−SEM, n=9) and PGE2 (1117.7+/−103.8 pg PGE2/ml, mean+/−SEM, n=5) in bronchoalveolar lavage (BAL) (Table 1) were identified. In these same BAL fluids, LXA4 was also present (15.0+/−3.3 pg LXA4/ml, mean+/−SEM, n=5) at levels similar to LTB4 (6.4+/−2.3 pg LTB4/ml, mean+/−SEM, n=9), but in 10- to 100-fold lower concentrations than CysLT's and PGE2, respectively (Table 1). LXA4 was not detected in cell-free BAL supernatants from non-immunized mice.
(§1) Sensitization and challenge protocols. Five to seven week old male BALB/c (Charles River Laboratories, Wilmington, Mass.) or female hCD11b-hALX FvB transgenic mice were housed in isolation cages under viral antibody-free conditions. After Harvard Medical Area IRB approval (Protocol #02570), mice were sensitized with intraperitoneal injections of ovalbumin (OVA) (Grade III; Sigma Chemical Co., St. Louis, Mo.) (10 μg) plus 1 mg aluminum hydroxide (ALUM) (J.T. Baker Chemical Co.; Phillipsburg, N.J.) as adjuvant in 0.2 ml PBS on days 0 and 7. […] On day 18, 24 h after the last aerosol challenge, airway responsiveness to intravenous methacholine (33-1000 μg/kg) was measured, bilateral bronchoalveolar lavage (BAL) (2 aliquots of 1 ml PBS plus 0.6 mM EDTA) was performed and tissues (whole blood, lungs, mediastinal lymph nodes and spleen) were harvested for histological analysis. Lung resistance (RL) was measured using a sealed constant mass plethysmograph. […] For mice studied using a whole body plethysmograph to assess airway responsiveness (Buxco), each mouse was placed into a chamber and box pressure/time waveform was analyzed to yield the indicator of airflow obstruction, enhanced pause (Penh). […] Readings were initiated at 3 min and continued for 12 min. Peak and one min average Penh values were determined. Serum total IgE levels were determined by ELISA (Crystal Chem, Chicago, Ill.). […]

OVA sensitized mice [2] = experiment: Lung histopathology of OVA sensitized and aerosol challenged mice; format: in vivo, mouse (BALB/c); details: LXa 10 μg; OVA-allergic mice
Procedure: FIG. 2. Lung histopathology from LXa treated mice. Mice were sensitized and aerosol challenged with OVA in the absence (left column) or presence (right column) of LXa (10 μg). Representative (n=3) lung tissue sections (magnifications: ×40 (a,b), ×100 (d), ×200 (c,e) and ×400 (f)) were obtained from formalin-fixed, paraffin-embedded lung tissue, prepared and stained with hematoxylin and eosin. Arrows denote eosinophils; br, bronchus; v, vessel.
as §1, with “conditions.” for “conditions. After Harvard Medical Area IRB approval (Protocol #02570), mice were sensitized with intraperitoneal injections of ovalbumin (OVA) (Grade III; Sigma Chemical Co., St. Louis, Mo.) (10 μg) plus 1 mg aluminum hydroxide (ALUM) (J.T. Baker Chemical Co.; Phillipsburg, N.J.) as adjuvant in 0.2 ml PBS on days 0 and 7.”, “min.” for “min. Peak and one min average Penh values were determined. Serum total IgE levels were determined by ELISA (Crystal Chem, Chicago, Ill.).”

[3] = system: murine dorsal air pouches; details: murine dorsal air pouches (refs. 7, 16); cited from earlier work
[4] = cited from earlier work

COC(=O)CCC[C@H](O)[C@H](O)/C=C/C=C/C=C\C=C\[C@H](O)COc1ccc(F)cc1 [LXa, 15-epi,16-para-fluoro-phenoxy-LXA4-methyl ester]
ED200 to methacholine (OVA sensitized mice [1]; LXa 10 μg i.v., OVA sensitized and challenged mice): approximated the responses of control mice that had been sensitized but not challenged with OVA | ED200 to methacholine, LXa administration alone (OVA sensitized mice [1]; LXa alone, compared to control mice): no significant differences in ED200 compared to control mice | bronchoconstriction in response to methacholine (change in lung resistance) (OVA sensitized mice [1]; LXa i.v. at least 60 min prior to OVA challenge, OVA sensitized mice): significantly inhibited bronchoconstriction in response to methacholine in a dose-dependent manner | deleterious physiologic or behavioral effects (OVA sensitized mice [1]; LXa treated mice): Neither deleterious physiologic nor behavioral effects were evident | lung tissue leukocyte infiltration (tissue eosinophils and lymphocytes) and vascular injury (OVA sensitized mice [2]): significantly reduced leukocyte infiltration | neutrophil accumulation and exudate formation [3]: blocks neutrophil accumulation and exudate formation | metabolic inactivation [4]: resists metabolic inactivation
